For this test, the system named is HBV. The experiment in a line: HBV replication inhibition assay (BDNA assay) in HepG2.2.15 cells. Format: cell-based. The following applies: HepG2.2.15 cells, read-out: DNA EC50. Summed up: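 Supernatant encapsidated HBV DNA was measured by bDNA after DNase digestion and proteinase K release. Stably HBV-integrated HepG2.2.15 cells had two 3-day compound exposures (0.5% DMSO). Signals were background-subtracted and normalized to DMSO wells, and EC50 was obtained by four-parameter fit.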

[1] abbreviates: Hepatitis B virus, HepG2.2.15, HBV replication assay (BDNA assay).

One may read the EC50 as the concentration at which the effect is half-maximal.

Structures are written as SMILES. Like-named read-outs stand apart in the source and are kept apart here.

For `CN1OC(CNCC(F)F)Cn2nc3c(c2C1=O)CN(C(=O)Nc1ccc(F)c(C#N)c1F)CC3` (single isomer, unassigned) [Compound 186_E1, (S*)—N-(3-cyano-2,4-difluorophenyl)-4-(((2,2-difluoroethyl)amino)methyl)-2-methyl-1-oxo-1,4,5,8,9,11-hexahydropyrido[4′,3′:3,4]pyrazolo[5,1-d][1,2,5]oxadiazepine-10(2H)-carboxamide], the EC50 under setting [1] is 1 to 100 nM. Turning to `CN1OC(CNCC(F)F)Cn2nc3c(c2C1=O)CN(C(=O)Nc1ccc(F)c(C#N)c1)CC3` (single isomer, unassigned) [Compound 187_E1, (S*)—N-(3-cyano-4-fluorophenyl)-4-(((2,2-difluoroethyl)amino)methyl)-2-methyl-1-oxo-1,4,5,8,9,11-hexahydropyrido[4′,3′:3,4]pyrazolo[5,1-d][1,2,5]oxadiazepine-10(2H)-carboxamide], under setting [1], the EC50 fell in the range of 1 to 100 nM. On to `CN1OC(CNCC(F)F)Cn2nc3c(c2C1=O)CN(C(=O)Nc1ccc(F)c(Cl)c1F)CC3` (single isomer, unassigned) [Compound 188_E1, (S*)—N-(3-chloro-2,4-difluorophenyl)-4-(((2,2-difluoroethyl)amino)methyl)-2-methyl-1-oxo-1,4,5,8,9,11-hexahydropyrido[4′,3′:3,4]pyrazolo[5,1-d][1,2,5]oxadiazepine-10(2H)-carboxamide], for which, under setting [1], the EC50 fell in the range of 1 to 100 nM. For the compound `CN1OC(CNCC(F)F)Cn2nc3c(c2C1=O)CN(C(=O)Nc1ccc(F)c(Br)c1F)CC3` (single isomer, unassigned) [Compound 189_E1, (S*)—N-(3-bromo-2,4-difluorophenyl)-4-(((2,2-difluoroethyl)amino)methyl)-2-methyl-1-oxo-1,4,5,8,9,11-hexahydropyrido[4′,3′:3,4]pyrazolo[5,1-d][1,2,5]oxadiazepine-10(2H)-carboxamide], the EC50 under setting [1] is 1 to 100 nM. The same measure, in the same setting: the result for `CN1OC(CNCC(F)F)Cn2nc3c(c2C1=O)CN(C(=O)Nc1ccc(F)c(Br)c1)CC3` (single isomer, unassigned) [Compound 190_E1, (S*)—N-(3-bromo-4-fluorophenyl)-4-(((2,2-difluoroethyl)amino)methyl)-2-methyl-1-oxo-1,4,5,8,9,11-hexahydropyrido[4′,3′:3,4]pyrazolo[5,1-d][1,2,5]oxadiazepine-10(2H)-carboxamide] reads 1 to 100 nM. As to `CN1OC(CNCC(F)F)Cn2nc3c(c2C1=O)CN(C(=O)Nc1ccc(F)c(C(F)(F)F)c1F)CC3` (single isomer, unassigned) [Compound 191_E1, (S*)—N-(2,4-difluoro-3-(trifluoromethyl)phenyl)-4-(((2,2-difluoroethyl)amino)methyl)-2-methyl-1-oxo-1,4,5,8,9,11-hexahydropyrido[4′,3′:3,4]pyrazolo[5,1-d][1,2,5]oxadiazepine-10(2H)-carboxamide], under setting [1], the EC50 lay within 1 to 100 nM.

With `CN1OC(CNCC(F)F)Cn2nc3c(c2C1=O)CN(C(=O)Nc1cc(Cl)c(F)cc1F)CC3` (single isomer, unassigned) [Compound 192_E1, (S*)—N-(5-chloro-2,4-difluorophenyl)-4-(((2,2-difluoroethyl)amino)methyl)-2-methyl-1-oxo-1,4,5,8,9,11-hexahydropyrido[4′,3′:3,4]pyrazolo[5,1-d][1,2,5]oxadiazepine-10(2H)-carboxamide], the EC50 under setting [1] is 1 to 100 nM. For `CN1OC(CNCC(F)F)Cn2nc3c(c2C1=O)CN(C(=O)Nc1cc(Br)c(F)cc1F)CC3` (single isomer, unassigned) [Compound 193_E1, (S*)—N-(5-bromo-2,4-difluorophenyl)-4-(((2,2-difluoroethyl)amino)methyl)-2-methyl-1-oxo-1,4,5,8,9,11-hexahydropyrido[4′,3′:3,4]pyrazolo[5,1-d][1,2,5]oxadiazepine-10(2H)-carboxamide], the EC50 under setting [1] lay within 1 to 100 nM.

`CN1OC(COCC(F)(F)F)Cn2nc3c(c2C1=O)CN(C(=O)Nc1ccc(F)c(C#N)c1)CC3` (single isomer, unassigned) [Compound 211, (S*)—N-(3-cyano-4-fluorophenyl)-2-methyl-1-oxo-4-((2,2,2-trifluoroethoxy)methyl)-1,4,5,8,9,11-hexahydropyrido[4′,3′:3,4]pyrazolo[5,1-d][1,2,5]oxadiazepine-10(2H)-carboxamide]: the concentration for a half-maximal effect (EC50) under setting [1] was 1 to 100 nM. For the compound `CN1OC(COCC(F)F)Cn2nc3c(c2C1=O)CN(C(=O)Nc1ccc(F)c(C(F)(F)F)c1)CC3` (single isomer, unassigned) [Compound 212, (S*)-4-((2,2-difluoroethoxy)methyl)-N-(4-fluoro-3-(trifluoromethyl)phenyl)-2-methyl-1-oxo-1,4,5,8,9,11-hexahydropyrido[4′,3′:3,4]pyrazolo[5,1-d][1,2,5]oxadiazepine-10(2H)-carboxamide], the EC50 under setting [1] fell in the range of 1 to 100 nM. Consider `CN1O[C@H](C[S@+](C)[O-])Cn2nc3c(c2C1=O)CN(C(=O)Nc1ccc(F)c(Cl)c1)CC3` (stereo in doubt) [Compound 049_E1, (S*)—N-(3-chloro-4-fluorophenyl)-2-methyl-4-(((S*)-methylsulfinyl)methyl)-1-oxo-1,4,5,8,9,11-hexahydropyrido[4′,3′:3,4]pyrazolo[5,1-d][1,2,5]oxadiazepine-10(2H)-carboxamide], for which the EC50 under setting [1] lay in the range of 100 to 500 nM. Take `CN1O[C@H](C[S@@+](C)[O-])Cn2nc3c(c2C1=O)CN(C(=O)Nc1ccc(F)c(Cl)c1)CC3` (stereo in doubt) [Compound 049_E2, (S*)—N-(3-chloro-4-fluorophenyl)-2-methyl-4-(((R*)-methylsulfinyl)methyl)-1-oxo-1,4,5,8,9,11-hexahydropyrido[4′,3′:3,4]pyrazolo[5,1-d][1,2,5]oxadiazepine-10(2H)-carboxamide]: under setting [1], the EC50 was 1 to 100 nM. Same read-out and setting: with `CN1O[C@@H](C[S@@+](C)[O-])Cn2nc3c(c2C1=O)CN(C(=O)Nc1ccc(F)c(Cl)c1)CC3` (stereo in doubt) [Compound 049_E3, (R*)—N-(3-chloro-4-fluorophenyl)-2-methyl-4-(((R*)-methylsulfinyl)methyl)-1-oxo-1,4,5,8,9,11-hexahydropyrido[4′,3′:3,4]pyrazolo[5,1-d][1,2,5]oxadiazepine-10(2H)-carboxamide] the figure was 1 to 100 nM; with `CN1O[C@@H](C[S@+](C)[O-])Cn2nc3c(c2C1=O)CN(C(=O)Nc1ccc(F)c(Cl)c1)CC3` (stereo in doubt) [Compound 049_E4, (R*)—N-(3-chloro-4-fluorophenyl)-2-methyl-4-(((S*)-methylsulfinyl)methyl)-1-oxo-1,4,5,8,9,11-hexahydropyrido[4′,3′:3,4]pyrazolo[5,1-d][1,2,5]oxadiazepine-10(2H)-carboxamide], 100 to 500 nM.

Take `C[C@H]1Cc2nn3c(c2CN1C(=O)Nc1ccc(F)c(Cl)c1)C(=O)N(C)O[C@H](CO)C3` (stereo in doubt) [Compound 069_E1, (4S*,9S*)—N-(3-chloro-4-fluorophenyl)-4-(hydroxymethyl)-2,9-dimethyl-1-oxo-1,4,5,8,9,11-hexahydropyrido[4′,3′:3,4]pyrazolo[5,1-d][1,2,5]oxadiazepine-10(2H)-carboxamide]: under setting [1], the EC50 is 1 to 100 nM. Take `C[C@H]1Cc2nn3c(c2CN1C(=O)Nc1ccc(F)c(Cl)c1)C(=O)N(C)O[C@@H](CO)C3` (stereo in doubt) [Compound 069_E2, (4R*,9S*)—N-(3-chloro-4-fluorophenyl)-4-(hydroxymethyl)-2,9-dimethyl-1-oxo-1,4,5,8,9,11-hexahydropyrido[4′,3′:3,4]pyrazolo[5,1-d][1,2,5]oxadiazepine-10(2H)-carboxamide]: the EC50 under setting [1] lay in the range of 1 to 100 nM.

For `C[C@@H]1Cc2nn3c(c2CN1C(=O)Nc1ccc(F)c(Cl)c1)C(=O)N(C)O[C@@H](CO)C3` (stereo in doubt) [Compound 069_E3, (4R*,9R*)—N-(3-chloro-4-fluorophenyl)-4-(hydroxymethyl)-2,9-dimethyl-1-oxo-1,4,5,8,9,11-hexahydropyrido[4′,3′:3,4]pyrazolo[5,1-d][1,2,5]oxadiazepine-10(2H)-carboxamide], the EC50 under setting [1] was 100 to 500 nM.

With `C[C@@H]1Cc2nn3c(c2CN1C(=O)Nc1ccc(F)c(Cl)c1)C(=O)N(C)O[C@H](CO)C3` (stereo in doubt) [Compound 069_E4, (4S*,9R*)—N-(3-chloro-4-fluorophenyl)-4-(hydroxymethyl)-2,9-dimethyl-1-oxo-1,4,5,8,9,11-hexahydropyrido[4′,3′:3,4]pyrazolo[5,1-d][1,2,5]oxadiazepine-10(2H)-carboxamide], the EC50 under setting [1] fell in the range of 1 to 100 nM. Still for that read-out and setting: the result for `C[C@@H]1Cc2nn3c(c2CN1C(=O)Nc1ccc(F)c(C(F)(F)F)c1)C(=O)N(C)OC(CO)C3` (stereo in doubt) [Compound 082_E1, (4S*,9R)—N-(4-fluoro-3-(trifluoromethyl)phenyl)-4-(hydroxymethyl)-2,9-dimethyl-1-oxo-1,4,5,8,9,11-hexahydropyrido[4′,3′:3,4]pyrazolo[5,1-d][1,2,5]oxadiazepine-10(2H)-carboxamide] reads 1 to 100 nM. On to `C[C@@H]1Cc2nn3c(c2CN1C(=O)Nc1ccc(F)c(C(F)(F)F)c1)C(=O)N(C)OC(CO)C3` (stereo in doubt) [Compound 082_E2, (4R*,9R)—N-(4-fluoro-3-(trifluoromethyl)phenyl)-4-(hydroxymethyl)-2,9-dimethyl-1-oxo-1,4,5,8,9,11-hexahydropyrido[4′,3′:3,4]pyrazolo[5,1-d][1,2,5]oxadiazepine-10(2H)-carboxamide], for which the EC50 (HBV replication assay (BDNA assay)) was 1 to 100 nM. `C[C@@H]1Cc2nn3c(c2CN1C(=O)Nc1ccc(F)c(C#N)c1)C(=O)N(C)OC(CO)C3` (stereo in doubt) [Compound 084_E1, (4S*,9R)—N-(3-cyano-4-fluorophenyl)-4-(hydroxymethyl)-2,9-dimethyl-1-oxo-1,4,5,8,9,11-hexahydropyrido[4′,3′:3,4]pyrazolo [5,1-d][1,2,5]oxadiazepine-10(2H)-carboxamide]: the EC50 under setting [1] lay in the range of 1 to 100 nM.

For the origin of these results see US10987359B2, “Oxadiazepinone derivatives and methods of treating hepatitis B infections” (priority 2016, dated 2021).
